In one data set the test system is NCI-H1975. The data set can be described thus: Antiproliferative activity against human NCI-H1975 cells assessed as reduction in cell viability by MTT assay. Type of data set: functional, cell-based. (Formazan colour is commonly taken as a measure of viable cells.)
The subject of the next data set is A549. The data set can be described thus: Antiproliferative activity against human A549 cells assessed as reduction in cell viability by MTT assay. The data set is classed as functional, cell-based.
Data set [1] has as its target Bromodomain-containing protein 4 (Homo sapiens, UniProt O60885). As to the kind of experiment: Inhibition of BRD4 (unknown origin).
Data set [2] concerns the target Platelet-derived growth factor receptor beta (Homo sapiens) (UniProt P09619). As to the kind of experiment: Inhibition of PDGFRbeta (unknown origin) measured for 48 hrs at 10 uM relative to control.
The target of data set [3] is Protein cereblon/Androgen receptor (Homo sapiens) (UniProt P10275+Q96SW2). As to the kind of experiment: PROTAC activity at AR/CRBN in human LNCaP cells assessed as protein degradation measured by measuring maximal degradation at 5 uM incubated for 24 hrs by Western blot analysis relative to control. Type of data set: cell-based. (Immunoblotting shows a protein as a band on a membrane.)

In another data set the test system is LNCaP. As to the kind of experiment: Antiproliferative activity against human LNCAP cells assessed as reduction in cell viability incubated for 24 hrs by MTT assay. Type of data set: functional, cell-based.
The next data set relates to MCF7. As to the kind of experiment: Antiproliferative activity against human MCF7 cells.
The test system of the next data set is T47D. The data set can be described thus: Antiproliferative activity against human T47D cells.
Data set [4] concerns MDA-MB-231. As to the kind of experiment: Antiproliferative activity against human MDA-MB-231 cells.
A further data set deals with MDA-MB-468. The data set can be described thus: Antiproliferative activity against human MDA-MB-468 cells.
The subject of data set [5] is Pfeiffer. The data set can be described thus: Antiproliferative activity against human Pfeiffer cells.
For data set [6], the system named is MDA-MB-231. As to the kind of experiment: Induction of cell cycle arrest in human MDA-MB-231 cells assessed as G0/G1 phase arrest at 12.3 to 1000 nM incubated for 24 hrs by PI staining based flow cytometry analysis. Type of data set: functional. As to conditions: dose 12.3-1000 nM. In general terms: Flow cytometry measures light scatter and fluorescence of single cells or particles in a stream.

In data set [7] the test system is Pfeiffer. The data set can be described thus: Induction of cell cycle arrest in human Pfeiffer cells assessed as G0/G1 phase arrest at 100 nM incubated for 24 hrs by PI staining based flow cytometry analysis. Type of data set: functional.
A short description of data set [8]: Intrinsic clearance in mouse liver microsomes. The data set is classed as ADME, Microsome. As to conditions: read-out: CLH.
Data set [9] can be described thus: Half life in mouse. The data set is classed as ADME, organism-based. As to conditions: in vivo.
In data set [10] the target is Protein cereblon/Mitogen-activated protein kinase kinase kinase kinase 1 (Homo sapiens, UniProt Q92918+Q96SW2). As to the kind of experiment: PROTAC activity at CRBN/HPK1 in human Jurkat cells assessed as degradation of HPK1 protein by Western blotting analysis. The data set is classed as cell-based.
For data set [11], the target named is Mitogen-activated protein kinase kinase kinase kinase 1 (Homo sapiens, UniProt Q92918). The data set can be described thus: Inhibition of HPK1 (unknown origin).
The next data set concerns U-87 MG. As to the kind of experiment: Antiproliferative activity against human U87 cells. The data set is classed as functional, cell-based, U-87MG ATCC.
Data set [12] is described as follows: PROTAC activity at VHL/human p38alpha in MDA-MB-231 cells assessed as p38alpha degradation. Type of data set: cell-based.

Mitogen-activated protein kinase kinase kinase kinase 1, sequence (Q92918 whole entry): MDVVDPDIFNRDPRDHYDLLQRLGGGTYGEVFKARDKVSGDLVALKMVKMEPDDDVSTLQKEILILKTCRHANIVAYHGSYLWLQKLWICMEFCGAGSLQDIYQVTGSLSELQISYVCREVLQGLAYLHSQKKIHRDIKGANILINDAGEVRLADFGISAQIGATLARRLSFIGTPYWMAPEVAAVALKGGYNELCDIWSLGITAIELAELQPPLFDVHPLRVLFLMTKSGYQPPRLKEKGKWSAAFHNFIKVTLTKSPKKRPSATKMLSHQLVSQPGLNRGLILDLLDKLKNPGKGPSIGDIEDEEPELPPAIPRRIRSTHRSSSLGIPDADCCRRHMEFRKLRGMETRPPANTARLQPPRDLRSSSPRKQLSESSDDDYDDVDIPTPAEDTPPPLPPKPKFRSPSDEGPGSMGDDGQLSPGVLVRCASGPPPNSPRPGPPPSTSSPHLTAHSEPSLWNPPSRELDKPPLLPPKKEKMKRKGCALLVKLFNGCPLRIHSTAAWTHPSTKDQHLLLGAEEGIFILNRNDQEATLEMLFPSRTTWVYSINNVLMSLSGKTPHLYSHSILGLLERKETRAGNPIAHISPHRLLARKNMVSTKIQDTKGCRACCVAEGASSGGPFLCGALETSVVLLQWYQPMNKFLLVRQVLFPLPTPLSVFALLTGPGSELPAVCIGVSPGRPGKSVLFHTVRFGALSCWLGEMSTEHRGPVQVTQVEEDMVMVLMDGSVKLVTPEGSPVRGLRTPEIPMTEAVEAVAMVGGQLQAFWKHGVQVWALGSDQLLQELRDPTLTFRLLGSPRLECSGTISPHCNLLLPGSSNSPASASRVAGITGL
Protein cereblon/Androgen receptor (Homo sapiens), sequence (P10275 whole entry, looked up): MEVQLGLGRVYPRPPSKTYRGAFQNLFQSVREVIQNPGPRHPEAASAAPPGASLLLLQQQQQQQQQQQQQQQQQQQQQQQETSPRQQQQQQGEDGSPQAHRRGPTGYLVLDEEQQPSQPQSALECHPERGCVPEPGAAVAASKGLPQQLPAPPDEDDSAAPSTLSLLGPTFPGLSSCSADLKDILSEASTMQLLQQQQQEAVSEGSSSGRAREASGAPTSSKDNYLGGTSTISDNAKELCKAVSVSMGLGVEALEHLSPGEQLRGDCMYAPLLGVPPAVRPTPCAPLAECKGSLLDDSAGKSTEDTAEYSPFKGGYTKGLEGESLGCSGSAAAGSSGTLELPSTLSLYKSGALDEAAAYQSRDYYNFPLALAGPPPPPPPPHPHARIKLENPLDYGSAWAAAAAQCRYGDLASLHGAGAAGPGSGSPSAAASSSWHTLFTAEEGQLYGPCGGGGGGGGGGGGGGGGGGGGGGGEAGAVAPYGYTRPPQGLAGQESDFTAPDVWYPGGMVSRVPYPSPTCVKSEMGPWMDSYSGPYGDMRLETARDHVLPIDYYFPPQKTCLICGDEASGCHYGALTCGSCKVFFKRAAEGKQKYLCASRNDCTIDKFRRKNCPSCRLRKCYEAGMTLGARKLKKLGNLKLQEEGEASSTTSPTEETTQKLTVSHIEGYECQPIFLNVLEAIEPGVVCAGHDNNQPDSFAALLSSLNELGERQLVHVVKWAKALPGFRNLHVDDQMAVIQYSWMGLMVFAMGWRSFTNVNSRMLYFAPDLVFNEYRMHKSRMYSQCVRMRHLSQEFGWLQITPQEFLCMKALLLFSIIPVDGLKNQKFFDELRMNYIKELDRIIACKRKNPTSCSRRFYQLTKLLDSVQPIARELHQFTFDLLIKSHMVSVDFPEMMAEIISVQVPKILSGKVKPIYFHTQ
Protein cereblon/Androgen receptor (Homo sapiens), sequence (Q96SW2 whole entry, looked up): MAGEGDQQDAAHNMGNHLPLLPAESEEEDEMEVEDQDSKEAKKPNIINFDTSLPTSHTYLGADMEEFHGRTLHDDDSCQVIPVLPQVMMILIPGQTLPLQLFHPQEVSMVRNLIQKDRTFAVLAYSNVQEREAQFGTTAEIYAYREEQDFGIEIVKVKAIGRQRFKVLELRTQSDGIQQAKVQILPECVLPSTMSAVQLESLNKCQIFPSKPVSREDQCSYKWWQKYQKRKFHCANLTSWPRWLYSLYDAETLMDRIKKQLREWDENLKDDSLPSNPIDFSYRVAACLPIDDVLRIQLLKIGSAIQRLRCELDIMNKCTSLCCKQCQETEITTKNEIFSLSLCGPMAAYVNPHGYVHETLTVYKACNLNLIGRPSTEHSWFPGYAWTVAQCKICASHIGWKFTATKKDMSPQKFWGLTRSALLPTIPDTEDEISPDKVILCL
Protein cereblon/Mitogen-activated protein kinase kinase kinase kinase 1, sequence (Q92918 whole entry): as the sequence (Q92918 whole entry) above
Protein cereblon/Mitogen-activated protein kinase kinase kinase kinase 1, sequence (Q96SW2 whole entry): as the sequence (Q96SW2 whole entry, looked up) above
Platelet-derived growth factor receptor beta (Homo sapiens), sequence (P09619 whole entry): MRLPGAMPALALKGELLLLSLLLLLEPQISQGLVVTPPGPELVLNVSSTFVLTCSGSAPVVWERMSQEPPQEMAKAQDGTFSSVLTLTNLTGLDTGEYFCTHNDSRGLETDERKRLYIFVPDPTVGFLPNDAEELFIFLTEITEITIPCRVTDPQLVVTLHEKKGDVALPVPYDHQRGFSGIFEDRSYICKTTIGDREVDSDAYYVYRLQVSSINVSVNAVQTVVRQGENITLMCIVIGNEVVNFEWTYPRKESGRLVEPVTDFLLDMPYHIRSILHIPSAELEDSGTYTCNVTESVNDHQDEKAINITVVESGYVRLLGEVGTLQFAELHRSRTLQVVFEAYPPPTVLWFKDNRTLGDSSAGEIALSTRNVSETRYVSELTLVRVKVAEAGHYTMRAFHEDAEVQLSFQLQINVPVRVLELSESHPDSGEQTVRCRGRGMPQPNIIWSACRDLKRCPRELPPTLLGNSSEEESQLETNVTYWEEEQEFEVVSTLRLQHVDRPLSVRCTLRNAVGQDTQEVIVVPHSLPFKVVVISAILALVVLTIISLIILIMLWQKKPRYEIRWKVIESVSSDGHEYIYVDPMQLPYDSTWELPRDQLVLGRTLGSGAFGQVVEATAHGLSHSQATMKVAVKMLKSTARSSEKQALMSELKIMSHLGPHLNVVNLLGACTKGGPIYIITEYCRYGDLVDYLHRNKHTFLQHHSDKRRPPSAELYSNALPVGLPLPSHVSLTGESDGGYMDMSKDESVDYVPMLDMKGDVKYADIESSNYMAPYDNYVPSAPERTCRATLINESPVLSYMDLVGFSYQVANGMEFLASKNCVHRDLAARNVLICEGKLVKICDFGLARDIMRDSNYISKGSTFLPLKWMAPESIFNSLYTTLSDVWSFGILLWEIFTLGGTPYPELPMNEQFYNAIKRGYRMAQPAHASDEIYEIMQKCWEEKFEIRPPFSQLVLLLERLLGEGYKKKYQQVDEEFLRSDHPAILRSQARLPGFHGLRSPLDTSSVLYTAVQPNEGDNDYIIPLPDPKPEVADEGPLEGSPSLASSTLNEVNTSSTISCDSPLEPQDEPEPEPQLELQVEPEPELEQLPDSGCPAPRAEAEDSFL

Broadly, the IC50 is the point on the concentration scale where inhibition reaches its midpoint. For the compound `COc1cc2ncnc(Nc3ccc(Cl)c(Cl)c3F)c2cc1Oc1ccc(NC(=O)CCCCCCC(=O)Nc2cccc3c2CN(C2CCC(=O)NC2=O)C3=O)cc1` (stereo not given), the IC50 with NCI-H1975 worked out at 2.1 µM; in the data set with A549 it was 67 µM.
Consider `CCS(=O)(=O)Nc1ccc(Oc2ccc(F)cc2F)c(-c2cn(C)c(=O)c3[nH]ccc23)c1` [MIVEBRESIB], for which the IC50 in data set [1] came to 0.0026 µM.
In general, inhibition refers to the share of the control response that was lost under treatment. The low end stands for little suppression, the high end for strong suppression. For the compound `O=C1CCC(N2Cc3c(NC(=O)CCCNC(=O)c4cc(Oc5ccc(NC(=O)Nc6ccc(Cl)c(C(F)(F)F)c6)cc5)ccn4)cccc3C2=O)C(=O)N1` (stereo not given), the inhibition in data set [2] was above 70%.
In general, Emax refers to the size of the effect at its maximum, as opposed to the concentration needed. `CC1(C)C(=O)N(c2ccc(C#N)c(C(F)(F)F)c2)C(=S)N1CCCCCCCCC(=O)N1CCN(CCCCCCCCCCCCC(=O)NC23CC4CC(CC(C4)C2)C3)CC1`: the maximal effect (Emax) in data set [3] worked out at 57%. Moreover, the IC50 with LNCaP is 4.77 µM.
Broadly, the half-life is the time needed for the level to fall by half in the phase considered. Low values mean rapid decline, high ones slow decline. As to `COc1cc(C)[nH]c(=O)c1CNC(=O)c1cccc2c1c(C)cn2[C@H](C)C1CCN(CCCCCCCCCC(=O)N[C@H](C(=O)N2C[C@H](O)C[C@H]2C(=O)NCc2ccc(-c3scnc3C)cc2)C(C)(C)C)CC1`, the IC50 is 4.15 µM in the data set on MCF7; 6.85 µM with T47D; 4.48 µM with MDA-MB-231 [4]; 1.4 µM in the data set with MDA-MB-468; 2.05 µM in the data set with Pfeiffer [5]. Besides, the results for the Activity in the data set on MDA-MB-231 [6] and with Pfeiffer [7] were 68.38% and 11.74%, respectively. Besides, in data set [8], the CLint scaled came to 150 mL/min/kg. Also, in data set [9], the half-life is 1.07 h.
Usually DC50 stands for the midpoint of the concentration-degradation curve. Take `COc1ccc(-c2c[nH]c3ccc(-c4ccc(N5CCN(C(=O)CCOCCNc6cccc7c6C(=O)N(C6CCC(=O)NC6=O)C7=O)CC5)cc4)cc23)cc1OC` (stereo not given): the DC50 in data set [10] turned out to be 0.0018 µM. Also, the 50% inhibitory concentration (IC50) in data set [11] amounted to 0.14 µM.
In data set [11], `COc1ccc(-c2c[nH]c3ccc(-c4ccc(N5CCN(C(=O)CCCCCNc6cccc7c6C(=O)N(C6CCC(=O)NC6=O)C7=O)CC5)cc4)cc23)cc1OC` (stereo not given) showed an IC50 of 0.614 µM.
Compound `Cc1ncsc1-c1ccc(CNC(=O)[C@@H]2C[C@@H](O)CN2C(=O)[C@@H](NC(=O)CCC(=O)Nc2ccc(-c3nncc4c3C3CC4CC3C(=O)NCCCC(=O)n3nc(N)c4c(-c5ccc(NC(=O)Nc6cccc(Cl)c6)cc5)cccc43)cc2)C(C)(C)C)cc1` (stereo not given in full) registered an IC50 in the data set with U-87 MG of 0.91 µM.
Take `Cc1ccc(C(=O)NCCCc2cn(CCCC(=O)NCCCCCC(=O)N[C@H](C(=O)N3C[C@H](O)C[C@H]3C(=O)N[C@@H](C)c3ccc(-c4scnc4C)cc3)C(C)(C)C)nn2)cc1-n1c(C)cc(OCc2ccc(F)cc2F)c(Br)c1=O`: in data set [12], the DC50 came out at 0.0116 µM.

These data come from ChEMBL document CHEMBL6153029, “Next-generation cancer therapeutics: PROTACs and the role of heterocyclic warheads in targeting resistance” (Eur J Med Chem, 2025).
